Measured values published in article PMC8878317, “Chemogenomics identifies acetyl-coenzyme A synthetase as a target for malaria treatment and prevention” (Cell Chemical Biology, 2022).

Tests used:
[1] = test system: P. falciparum Dd2:T648M (CRISPR edited PfAcAS); experiment: Blood-stage dose-response assay, CRISPR-edited Dd2:T648M line; format: cell-based; conditions: Plasmodium falciparum, mean ± SD, n bioreplicates
Description: (§1) For in vitro–selected lines, drug susceptibility was measured by SYBR Green I–based assay ([Johnson et al., 2007]; [Smilkstein et al., 2004]). Ring-stage parasites were cultured for 72 hr at 1% hematocrit and 1% starting parasitemia in 384-well black clear-bottom plates containing test compounds plated in triplicate in 12-point serial dilutions. Lysis buffer (0.16% w/v saponin, 1.6% Triton X-100, 5 mM EDTA, and 20 mM Tris-HCl, pH 7.4) with SYBR Green I fluorescent dye (Invitrogen) was added, and fluorescence readings were taken (excitation at 494 nm, emission at 530 nm). Alternatively, Dd2-B2 ring-stage cultures at 0.3% parasitemia and 1% hematocrit were exposed for 72 hr to a range of ten drug concentrations that were 2-fold serially diluted in duplicates along with drug-free controls. Parasite survival was assessed by flow cytometry on an Accuri C6 (BD Biosciences) using SYBR Green and MitoTracker Deep Red FM (Life Technologies) as nucleic acid stain and vital dyes respectively. EC50 values were calculated using a nonlinear regression curve fit in Prism Software version 8 (GraphPad).
(§2) Mutant PfAcAS-A597V and PfAcAS-T648M parasites were generated using CRISPR/Cas9. The guide RNAs for PfAcAS-A597V (5′-[…]-3′; 5′-[…]-3′) and for PfAcAS-T648M (5′-[…]-3′) were designed using Benchling (https://benchling.com/) to targeting sites in PfAcAS that were 6-14 bp upstream of the A597 codon and 6 bp downstream of the T648 codon respectively. Complementary oligos encoding the gRNA sequences (5′- tatt[…]-3’ / 5’-aaac[…]-3’; 5’-tatt[…]-3’ / 5’-aaac[…]-3’ and 5’- tattg[…]-3’ / 5’-aaac[…]c-3’ ) were phosphorylated using T4 polynucleotide kinase and annealed (95°C for 5 min, then step down of 5°C/min to 25°C) prior to ligation into the BbsI-digested pDC2-coCas9-U6.2-hDHFR plasmid ([Lim et al., 2016]). The donor template for PfAcAS-A597V was synthesized (ThermoFisher) as a 700 bp Genestring fragment spanning position 1468 to 2168 of the PfAcAS gene, and the donor for PfAcAS-T648M synthesized as a 829 bp fragment spanning position 1468 to 2297 and inserted into the AatII/EcoRI sites of the pDC2-coCas9-gRNA-hDHFR plasmid by Gibson assembly. Ring-stage parasites (Dd2) at 5% parasitemia were transfected by electroporation (BioRad Gene Pulser II at 0.310 kV and 950 μF) with 50 μg of each plasmid (plasmid 1: pDC2-coCas9-AcAS-A597V-gRNA1-hDHFR, plasmid 2: pDC2-coCas9-gRNA2-hDHFR, or plasmid 3: pDC2-coCas9-AcAS-T648M-gRNA1-hDHFR), and parasites selected for 10 days with 2.5 nM WR99210 (Jacobus Pharmaceuticals), followed by removal of drug pressure. After confirmation of editing in the bulk culture, clones were isolated by serial limiting dilution and confirmed by Sanger sequencing after PCR amplification from genomic DNA using forward primer 5′-[…]-3′ and reverse primer 5′-[…]-3′ (for A597V) and 5′-[…]-3′ (for T648M).

P. falciparum Dd2-B2 = experiment: Blood-stage dose-response assay (72 hr), Dd2 / Dd2-B2 parent; format: cell-based; conditions: Plasmodium falciparum, DD2, read-out: Dd2-B2 parent EC50 ± SD (nM)
Description: (§3) The 3D7-A10 clone has been used in previous in vitro drug selection and sequencing efforts ([Cowell et al., 2018]). Dd2 parasites were obtained from T. Wellems (NIAID, NIH). Dd2-B2 is a genetically homogeneous line that was cloned from Dd2 by limiting dilution in the Fidock lab. Parasite strains were cultured in 3-5% human O+ hematocrit in RPMI 1640 (Life Technologies) supplemented with 28 mM NaHCO3, 25 mM HEPES, and hypoxanthine ([…]). Depending on the parasite line, the media either contained gentamycin (25 μg/mL), or no antibiotic and was additionally supplemented with 0.5% AlbuMAX II (Life Technologies) and/or O+ human serum (heat inactivated and pooled). Blood and serum products were obtained from Interstate Blood Bank. Cultures were maintained at 37°C in 1.1% O2, 4% CO2, and 95% N2. Parasite populations were synchronized by 5% sorbitol treatment ([Lambros and Vanderberg, 1979]).
as §1

P. falciparum 3D7-A10 = experiment: Blood-stage dose-response assay (SYBR Green I, 72 hr), 3D7 / 3D7-A10 parent; format: cell-based; conditions: Plasmodium falciparum, mean ± SD, n bioreplicates, read-out: 3D7-A10 parent EC50 ± SD
Description: as §3, §1

[2] = test system: P. falciparum Dd2:A597V (CRISPR edited PfAcAS); experiment: Blood-stage dose-response assay, CRISPR-edited Dd2:A597V line; format: cell-based; conditions: Plasmodium falciparum, mean ± SD, n bioreplicates
Description: as §1, §2

PfAcAS T648M = molecular target: T1, PfAcAS T648M (Plasmodium falciparum, UniProt C6KTB4, T648M); experiment: EnzChek assay, recombinant PfAcAS T648M; format: biochemical, P. falciparum; conditions: substrate varied, other two saturating
T1 sequence (C6KTB4 1-997 T648M): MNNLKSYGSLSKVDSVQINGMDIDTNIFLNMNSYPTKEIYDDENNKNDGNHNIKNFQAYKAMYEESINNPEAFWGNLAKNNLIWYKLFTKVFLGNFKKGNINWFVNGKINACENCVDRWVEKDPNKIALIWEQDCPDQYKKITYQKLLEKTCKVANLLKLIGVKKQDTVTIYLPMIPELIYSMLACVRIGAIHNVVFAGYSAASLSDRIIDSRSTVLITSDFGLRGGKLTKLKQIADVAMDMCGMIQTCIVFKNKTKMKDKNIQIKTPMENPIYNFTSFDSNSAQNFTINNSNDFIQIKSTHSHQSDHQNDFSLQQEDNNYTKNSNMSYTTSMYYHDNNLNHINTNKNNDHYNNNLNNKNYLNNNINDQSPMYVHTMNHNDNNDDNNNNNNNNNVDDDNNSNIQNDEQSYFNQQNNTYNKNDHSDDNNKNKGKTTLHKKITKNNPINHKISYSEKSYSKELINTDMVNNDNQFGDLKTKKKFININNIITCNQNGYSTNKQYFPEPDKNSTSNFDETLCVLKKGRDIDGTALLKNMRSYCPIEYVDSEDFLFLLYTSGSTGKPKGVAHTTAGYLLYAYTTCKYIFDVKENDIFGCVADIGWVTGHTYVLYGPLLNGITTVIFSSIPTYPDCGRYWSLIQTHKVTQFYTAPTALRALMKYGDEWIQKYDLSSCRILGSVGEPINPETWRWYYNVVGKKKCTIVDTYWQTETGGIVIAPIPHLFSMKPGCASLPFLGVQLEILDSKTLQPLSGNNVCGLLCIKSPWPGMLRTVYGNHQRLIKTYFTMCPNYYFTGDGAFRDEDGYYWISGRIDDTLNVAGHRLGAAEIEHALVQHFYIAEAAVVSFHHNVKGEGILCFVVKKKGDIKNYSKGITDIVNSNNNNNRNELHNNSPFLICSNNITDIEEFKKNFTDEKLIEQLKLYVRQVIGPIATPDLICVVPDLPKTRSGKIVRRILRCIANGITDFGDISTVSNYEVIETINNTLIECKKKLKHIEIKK
Description: (§4) Steady-state kinetic measurements were conducted at room temperature using a PheraStar plate reader (BMG). The first step of the reaction of PfAcAS, which produces inorganic pyrophosphate (PPi) that is converted to two molecules of inorganic phosphate using a pyrophosphatase enzyme, was continuously monitored using the EnzChek Phosphate Assay Kit, which gives an absorbance readout at 360 nm (Figure 4A) ([Webb, 1992]). […] By adding CoA, the reaction rapidly proceeds to the second step resulting in further release of pyrophosphate, making the EnzChek assay a suitable option to continuously monitor the activity of PfAcAS. Typical kinetic assays were carried out in clear, flat-bottom, polystyrene, 384-well plates (Greiner) in an 80 μL reaction volume containing 100 mM HEPES (pH7.4), 100 mM NaCl, 250 mM KCl, 50 mM MgCl2, 1 mM DTT, 0.004% Tween 20, 0.5 U/mL pyrophosphatase, 0.1 mM MESG, 0.5 U/mL PNP, 2 mM ATP, 2 mM acetate, 0.5 mM CoA and 5 nM recombinant PfAcAS WT or 10 nM recombinant PfAcAS A597V or T648M. Assays were performed by adding 40 μL of a 2-times concentrated substrate mixture including MESG to all wells, and the reactions started by adding 40 μL of a 2-times concentrated reaction mixture containing all other components. The reactions were carried out for 2 to 4 hr with absorbance readings at 360 nm every two to four minutes. Reaction rates were extracted from the linear phase of activity, usually using 10 to 20 points between times of 30 and 100 min of the reactions. Using a phosphate standard curve obtained under the same buffer conditions used for the PfAcAS reactions (Figure S5A), the rates were then converted to velocity per second, conversion of one nanomolar of phosphate, per nanomolar of enzyme, per second. The substrates Km values were determined by varying the concentration of one of the substrates at saturating concentration of the other two substrates. Steady-state data were fitted using the nonlinear, least-squares, curve-fitting programs of Sigma-Plot for Windows, version 14.0. Individual saturation curves were fit to Equation 1(Equation 1) v=VS/K+S where V is the maximal velocity, S is the substrate concentration and K is the Michaelis constant for the substrate (Km). Individual saturation curves displaying substrate inhibition were fit to Equation 2(Equation 2) v=VS/K+S×(1+S/Ks) where Ks is the substrate inhibition constant.
(§5) To determine the steady-state inhibition parameters and patterns associated with both inhibitors, PfAcAS activity was studied in the presence of variable concentrations of one substrate, ATP, acetate or CoA, fixed saturating concentration of the other two substrates (acetate and CoA, ATP and CoA, or ATP and acetate) and several fixed concentrations of inhibitor. Assay ready plates containing different concentrations of inhibitor were prepared using an Echo 550 acoustic dispenser (Labcyte Inc.). The assays were carried out as described in the previous section. […] For better comparison between both inhibitors and proteins, the ymin was fixed to zero and the ymax to 100. Inhibition data showing linear, competitive patterns in double-reciprocal plots were fit to Equation 4(Equation 4) v=VS/K(1+I/Ki)+S where Ki is the dissociation constant for the enzyme-inhibitor complex. Inhibition data showing linear, mixed inhibition patterns in double-reciprocal plots were fit to Equation 5(Equation 5) v=VS/K(1+I/Kis)+S(1+I/Kii) where Kis is the dissociation constant for the free enzyme-inhibitor complex and Kii is the dissociation constant for the enzyme-substrate-inhibitor complex. Inhibition data showing linear, uncompetitive patterns in double-reciprocal plots were fit to Equation 6(Equation 6) v=VS/K+S(1+I/Ki)

HsAcAS WT = molecular target: T2, HsAcAS WT (Homo sapiens, UniProt Q9NR19); experiment: HsAcAS Rapid-Fire QQQ mass spectrometry assay; format: biochemical; conditions: read-out: Km (µM), HsWT
T2 construct: made in house; host or cells: Expi293 cells (pCDNA 3.1, transient transfection)
T2 sequence (Q9NR19 whole entry): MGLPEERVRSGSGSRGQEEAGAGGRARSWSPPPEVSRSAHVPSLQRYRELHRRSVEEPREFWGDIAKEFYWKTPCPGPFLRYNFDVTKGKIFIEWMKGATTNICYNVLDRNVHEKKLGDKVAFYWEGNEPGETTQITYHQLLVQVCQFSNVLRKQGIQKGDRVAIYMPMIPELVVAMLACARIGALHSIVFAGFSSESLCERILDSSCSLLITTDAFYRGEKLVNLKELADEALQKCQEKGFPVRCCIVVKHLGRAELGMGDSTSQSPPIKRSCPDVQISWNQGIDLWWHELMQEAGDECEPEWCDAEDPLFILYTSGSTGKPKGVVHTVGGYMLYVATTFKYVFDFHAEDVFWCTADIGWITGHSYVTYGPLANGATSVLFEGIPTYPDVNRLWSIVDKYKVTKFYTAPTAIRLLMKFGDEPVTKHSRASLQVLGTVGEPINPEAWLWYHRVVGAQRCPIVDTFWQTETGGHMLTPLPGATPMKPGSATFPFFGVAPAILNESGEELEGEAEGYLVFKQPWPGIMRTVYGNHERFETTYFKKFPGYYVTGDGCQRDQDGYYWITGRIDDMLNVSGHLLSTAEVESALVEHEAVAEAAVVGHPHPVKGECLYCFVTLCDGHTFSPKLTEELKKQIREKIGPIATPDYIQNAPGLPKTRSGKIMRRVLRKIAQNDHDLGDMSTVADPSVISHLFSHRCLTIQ
Description: The human form of acetyl-CoA synthetase was assayed in 100 mM HEPES (pH7.4), 100 mM NaCl, 250 mM KCl, 50 mM MgCl2, 1 mM DTT, 0.005% NP40, 400 μM ATP, 70 μM acetate, 40 μM CoA and 2 nM recombinant HsAcAS. Assay ready plates containing different concentrations of inhibitor were prepared using an Echo 550 acoustic dispenser (Labcyte Inc.), dispensing 150 nL of compound per well. Assays were conducted in a total volume of 15 μL for 30 min at room temperature before being quenched with the addition of 85 μL 1% formic acid containing 0.5 μg/mL n-Propionyl coenzyme A (Sigma P5397) as an internal standard. Reaction products were detected using a RapidFire 365 system (Agilent, Santa Clara, CA) coupled with a triple quadrupole mass spectrometer 6740 (Agilent).
The sipper was washed to minimize carryover with 0.1% TFA in deionized water followed by 0.1% TFA in acetonitrile/deionized water (95%/5%, v/v). The sipper was washed to minimize carryover with deionized water followed by acetonitrile. Aspiration time, load/wash time, elution time, and re-equilibration time were set to 600, 3000, 5000, and 500 ms, respectively, with a cycle time of approximately 10 s. The triple-quadrupole mass spectrometer with electrospray ion source was operated in positive multiple reaction monitoring (MRM) mode. The detailed setting for the mass spectrometer parameters was as follows: capillary voltage, 3000 V; gas temperature, 350°C; gas flow, 7 L/min; nebulizer, 40 psi; sheath gas temperature, 300°C′ sheath gas flow, 11 L/min; and nozzle voltage, 1500 V. The MRM transitions for acetyl-CoA as a reaction product were set as 810.1/303.1 & 810.1/428.1 (quantifier & qualifier with dwell time of 50 ms, 100V fragmentor, and collision energies of 30 & 28 eV respectively) and for n-propionyl-CoA as an internal standard as 824.2/317.2 & 824.2/428.0 (quantifier & qualifier with dwell time of 50 ms, 100V fragmentor, and collision energies of 32 & 26 eV respectively). The mass resolution window for both parental and daughter ions was set at as a unit (0.7 Da). Peak areas were integrated, and area ratios of acetyl-CoA to the internal standard (n-propionyl CoA) were used for quantitation. Data were converted to % inhibition relative to the uninhibited enzyme control and fitted to Equation 3.

PfAcAS WT = PfAcAS WT (Plasmodium falciparum, UniProt C6KTB4); experiment: EnzChek assay, recombinant PfAcAS WT (steady-state kinetics and IC50); format: biochemical, P. falciparum; conditions: substrate varied, other two saturating
Description: as §4, §5

PfAcAS A597V = molecular target: T3, PfAcAS A597V (Plasmodium falciparum, UniProt C6KTB4, A597V); experiment: EnzChek assay, recombinant PfAcAS A597V; format: biochemical, P. falciparum; conditions: substrate varied, other two saturating
T3 sequence (C6KTB4 1-997 A597V): T1 sequence (C6KTB4 1-997 T648M)
Description: as §4, §5

Row | SMILES | EC50 [1] | EC50 (P. falciparum Dd2-B2) | EC50 (P. falciparum 3D7-A10) | EC50 [2] | Km (PfAcAS T648M) | Km (HsAcAS WT) | Km (PfAcAS WT) | Km (PfAcAS A597V) | Vmax (s-1), PfAcAS A597V (PfAcAS A597V)
1 | C[C@H]1[C@@H](O)O[C@@H]2O[C@@]3(C)CC[C@H]4[C@H](C)CC[C@@H]1[C@@]24OO3 [Dihydroartemisinin] | 3.7 ± 3 nM | 4.6 ± 3 nM | 2.6 ± 1.6 nM | 5.6 ± 3.5 nM |  |  |  |  | 
2 | CC(=O)O [acetate] |  |  |  |  | 190 ± 8 µM | 61 ± 4 µM | 72 µM | 400 ± 12 µM | 0.54 ± 0.05 s⁻¹
